Laboratory results from patent publication US20090075921A1, “Bone/joint disease sensitivity gene and use thereof” (Riken, priority 2004, published 2009).

How the values were obtained:
RCJ3.1C5.18 cells = assay: Ionomycin stimulation experiments in chondrocyte precursor cell line RCJ3.1C5.18; format: cell-based, rat; conditions: ionomycin 2 μM, W-7 0 to 10 μM, 24 hours
Procedure: RCJ3.1C5.18 cells are cells having characters as chondrocyte precursor cells, and showing increased expression of the type II collagen gene and the aggrecan gene in response to stimulation with ionomycin, which is a reagent that raises intracellular calcium concentrations. The present inventors analyzed the involvement of CaM in this reaction using W-7, which is a CaM inhibitor. For ordinary culture, DMEM (Sigma) comprising 10% FBS and antibiotics (100 U/ml penicillin G and 100 μg/ml streptomycin) was used. The stimulation experiments were performed by the procedure shown below. Cells were inoculated to a 12-multiwell plate at 1×10^5 cells/well. […] Quantitative real-time PCR was performed using ABI PRISM 7700 (Applied Biosystems). PCR reactions were performed using a system of a final volume of 20 μl [reverse transcription reaction mixture 1 μl, QuantiTect SYBR Green PCR (QIAGEN) 10 μl, 10 μM forward primer 0.6 μl, 10 μM reverse primer 0.6 μl, […]]. […] The copy number of the target gene in each sample was calculated from a calibration curve prepared using serial dilutions of target gene DNA of a known copy number. The expression level of each gene was corrected by total RNA content calculated with the expression level of GADPH as the index.

ATDC5 = assay: Chondrocyte differentiation experiments in ATDC5 with CaM inhibitor; format: cell-based, mouse; conditions: W-7 20 μM in insulin-containing differentiation medium
Text: The embryonic tumor-derived cloned cell line ATDC5 is an in vitro chondrocyte differentiation model that enables the reproduction of all differentiation stages of chondrocytes, from initial differentiation to terminal differentiation, in the presence of insulin. To analyze the role of calmodulin (CaM) in chondrocyte differentiation, the present inventors cultured ATDC5 in the presence of W-7, which is a CaM inhibitor, and quantified the expression levels of chondrocyte differentiation markers, i.e., the type II collagen gene (Col2a1), the aggrecan gene (Agc1), and the type X collagen gene (Col10a1). […] Medium exchange was performed every two days; cultivation was continued for up to 22 days, counted from the day of exchange to the differentiation medium. […] Quantitative real-time PCR was performed using ABI PRISM 7700 (Applied Biosystems). PCR reactions were performed using a system of a final volume of 20 μl [reverse transcription reaction mixture 1 μl, QuantiTect SYBR Green PCR (QIAGEN) 10 μl, 10 μM forward primer 0.6 μl, 10 μM reverse primer 0.6 μl, […]]. […] The copy number of the target gene in each sample was calculated from a calibration curve prepared using serial dilutions of target gene DNA of a known copy number. The expression level of each gene was corrected by total RNA content calculated with the expression level of Gapdh as the index.

ATDC5 cells = assay: MTT assay of ATDC5 cell growth; format: cell-based, mouse; conditions: added alone, medium 1-2
Procedure: ATDC5 was inoculated to a 12-well plate at 0.4×10^5 cells/well, and cultured using the medium 1-2 described in Example 19 for 24 hours, after which asporin and bFGF were added, and MTT assay was performed over time as described below. Specifically, the medium was removed by suction, the 1 mg/ml MTT reagent (DOJINDO) dissolved in DMEM/F12 was added at 1 ml/well, and the plate was incubated in a CO2 incubator for 1 hour. The supernatant was removed by suction, a Lysis reagent (86% isopropanol, 40 mM HCl, 1% SDS) was added to the plate at 0.2 ml/well, and extraction was performed at room temperature for 5 minutes. This extract was transferred to a 96-well plate, and OD550 was measured using a plate reader.

NHAC = assay: Effect of cycloheximide on asporin gene expression induction by TGF-β1 in NHAC; format: cell-based, human
Procedure: A time course of the expression of the asporin gene by TGF-β1 in NHAC was examined as described below. Cells were inoculated to a 12-well plate at 1×10^5 cells/well, and cultured in a DMEM/F12 containing 10% FBS until they became confluent. The medium was exchanged with a DMEM/F12 containing 0.2% FBS, and the cells were cultured for 24 hours, after which TGF-β1 (10 ng/ml) was added, total RNA was extracted over time, and the expression levels of the asporin and GAPDH genes were examined. As a result, the expression level of the asporin gene maximized when the cells were cultured in the presence of TGF-β1 (10 ng/ml) for 12 hours, and thereafter the expression level decreased over time (FIG. 46).
In the experimental system for asporin gene-expression induction by TGF-β1 used in the method described in Example 54, the effect of CHX (Sigma) (10 μM), a protein synthesis inhibitor, on the induction of the expression of the asporin gene (12 hours), when added 30 minutes before, simultaneously with, or 2 hours or 6 hours after addition of TGF-β1 (10 ng/ml), was examined. As a result, when CHX was added 30 minutes before, and simultaneously with, the addition of TGF-β1, asporin induction by TGF-β1 was inhibited (FIG. 48).

TGF-β1 = TGF-β1 (Homo sapiens, UniProt P01137); assay: Microplate binding assay, inhibition of biotinylated decholine binding to TGF-β1 solid phase; conditions: TGF-β1-coated microplate
Sequence of TGF-β1 (P01137 279-390 limits assumed, species assumed): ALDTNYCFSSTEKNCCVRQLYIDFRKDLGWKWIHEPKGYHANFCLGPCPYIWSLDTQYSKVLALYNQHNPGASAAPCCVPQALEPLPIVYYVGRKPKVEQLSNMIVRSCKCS
Procedure: A binding assay of mouse asporin and TGF-β using the microplate assay method was performed with the degree of inhibition of binding of biotinylated decholine and TGF-β as the index, as described below. To a Maxisorp 96-well microplate of Nunc, a 1 μg/ml TGF-β1 solution prepared with 0.05 M sodium carbonate buffer (pH 9.6) was dispensed at 100 μl/well, and the microplate was coated with the solution at 4° C. overnight. The TGF-β-coated wells were blocked in a 200 μl/well of binding buffer (50 mM Tris (pH 7.4), 150 mM NaCl, 2% BSA, 0.05% Tween 20) at 37° C. for 3 hours. The wells were once washed with a 400 μl/well of binding buffer, after which biotinylated decholine and non-labeled protein, prepared with the binding buffer, were added to obtain a total quantity of 100 μl per well, and the microplate was incubated at 37° C. for 6 hours. The wells were washed with a 400 μl/well of binding buffer 3 times, after which streptavidin-HRP (R&D System), diluted 200 fold with the binding buffer, was added at 100 μl/well, and the microplate was incubated at room temperature for 20 minutes. […] The reaction was stopped by the direct addition of 1 M phosphoric acid at 100 μl/well, and absorbance at 415 nm (control: 750 nm) was measured using Ultramark Microplate Imaging System (BIO-RAD). […]

NCCCCCCNS(=O)(=O)c1cccc2c(Cl)cccc12 [W-7]
ionomycin-induced expression of the type II collagen gene and the aggrecan gene (RCJ3.1C5.18 cells): suppressed dose-dependently
increases in the expression levels of Col2a1 and Agc1 (ATDC5; real-time PCR): suppressed to about half
expression level of Col10a1 (ATDC5; up to Day 22): further rose

bFGF: growth factor added to ATDC5 cells and coated on microplate [reference compound]
growth of ATDC5 cells (MTT, OD550) (ATDC5 cells): suppressed the growth of ATDC5 cells concentration-dependently

C[C@@H]1C[C@@H]([C@H](O)CC2CC(=O)NC(=O)C2)C(=O)[C@@H](C)C1 [CHX, cycloheximide]
asporin induction by TGF-β1 (NHAC; CHX 10 μM added 30 minutes before or simultaneously with TGF-β1 10 ng/ml): inhibited
asporin induction by TGF-β1 (NHAC; CHX 10 μM added at 2 hours or thereafter following TGF-β1): induction of asporin gene expression by TGF-β1 was observed

B1: Fr.18-21: partially purified product of Escherichia coli recombinant S-tagged mouse asporin (protein, UniProt Q99MQ4 33-373, looked up)
Asporin: DMEDTDDDDNDDDDNSLFPTKEPVNPFFPFDLFPTCPFGCQCYSRVVHCSDLGLTSVPNNIPFDTRMVDLQNNKIKEIKENDFKGLTSLYALILNNNKLTKIHPKTFLTTKKLRRLYLSHNQLSEIPLNLPKSLAELRIHDNKVKKIQKDTFKGMNALHVLEMSANPLENNGIEPGAFEGVTVFHIRIAEAKLTSIPKGLPPTLLELHLDFNKISTVELEDLKRYRELQRLGLGNNRITDIENGTFANIPRVREIHLEHNKLKKIPSGLQELKYLQIIFLHYNSIAKVGVNDFCPTVPKMKKSLYSAISLFNNPMKYWEIQPATFRCVLGRMSVQLGNVGK
modifications: S-tag; partially purified fraction
notes: partially purified product of Escherichia coli recombinant S-tagged mouse asporin
inhibition of binding of biotinylated decholine to TGF-β1 (TGF-β1): observed with dependence on protein content

B2: S-tagged mouse asporin: S-tagged mature mouse asporin expressed in E. coli from pET29b-MASP, contained in Fr.18-21 (protein)
chain: DMEDTDDDDNDDDDNSLFPTKEPVNPFFPFDLFPTCPFGCQCYSRVVHCSDLGLTSVPNNIPFDTRMVDLQNNKIKEIKENDFKGLTSLYALILNNNKLTKIHPKTFLTTKKLRRLYLSHNQLSEIPLNLPKSLAELRIHDNKVKKIQKDTFKGMNALHVLEMSANPLENNGIEPGAFEGVTVFHIRIAEAKLTSIPKGLPPTLLELHLDFNKISTVELEDLKRYRELQRLGLGNNRITDIENGTFANIPRVREIHLEHNKLKKIPSGLQELKYLQIIFLHYNSIAKVGVNDFCPTVPKMKKSLYSAISLFNNPMKYWEIQPATFRCVLGRMSVQLGNVGK
modifications: left off: small tags and cut ends
binding of S-tagged mouse asporin to the TGF-β1 solid phase (TGF-β1): binding of S-tagged mouse asporin was observed
